This experiment deals with T. b. rhodesiense STIB900 bloodstream, Alamar blue, 72 h. Nature of the experiment: T. b. rhodesiense proliferation inhibition, dose response, STIB900 strain, plate reader, dry powder (AID 651894).

Data on one compound can be found in PubChem BioAssay AID651894 (Broad Institute, 2012).

The IC50 is the concentration that gives 50% inhibition. Take `C[C@@H]1CN([C@@H](C)CO)C(=O)c2cccc(NC(=O)c3ccncc3)c2O[C@H]1CN(C)Cc1ccc(Oc2ccccc2)cc1`: the IC50 is 170 nM.
